From ChEMBL document CHEMBL1159132, “A small library of peptidomimetics to systematically vary and test the effects of X1 constraints” (Bioorg Med Chem Lett, 1996) come the findings set out here.

SMILES strings stand for the structures. Several values for one entry are separate records, joined by “and”; a condition that tells them apart may be missing. Equal entries are not always repeated.

This assay can be described thus: Inhibition of radiolabeled neuropeptide FF binding to neuropeptide FF receptors in rat spinal cord. Details: concentration or dose not given beside the values. Conditions: concentration not given here.

As usually defined, the inhibition is the drop in the measured response relative to a control, in per cent. Consider `CC(C)C[C@H](NC(=O)[C@H](Cc1ccccc1)NC(=O)[C@@H](C)NC(=O)[C@H](C)NC(=O)[C@@H](N)Cc1ccc(O)cc1)C(=O)N[C@@H](CCCN=C(N)N)C(=O)N[C@@H](Cc1ccccc1)C(N)=O`, for which the inhibition is 58% and 65%.

Consider `CC(C)C[C@H](NC(=O)[C@H](Cc1ccccc1)NC(=O)CNC(=O)[C@H](C)NC(=O)[C@@H](N)Cc1ccc(O)cc1)C(=O)N[C@@H](CCCN=C(N)N)C(=O)N[C@@H](Cc1ccccc1)C(N)=O`, for which the inhibition was 60% and 76%.

As for `CC(C)[C@@H]1C[C@]1(NC(=O)[C@H](Cc1ccccc1)NC(=O)[C@@H](C)NC(=O)CNC(=O)[C@@H](N)Cc1ccc(O)cc1)C(=O)N[C@@H](CCCN=C(N)N)C(=O)N[C@@H](Cc1ccccc1)C(N)=O`, the inhibition was 29% [middle of 4 runs].

The compound `CC(C)[C@H]1CC1(NC(=O)[C@H](Cc1ccccc1)NC(=O)[C@@H](C)NC(=O)CNC(=O)[C@@H](N)Cc1ccc(O)cc1)C(=O)N[C@@H](CCCN=C(N)N)C(=O)N[C@@H](Cc1ccccc1)C(N)=O` (single isomer, unassigned) returned an inhibition of 27%.

As to `CC(C)C[C@H](NC(=O)[C@H](Cc1ccccc1)NC(=O)[C@@H](C)NC(=O)CNC(=O)[C@@H](N)Cc1ccc(O)cc1)C(=O)N[C@@H](CCCN=C(N)N)C(=O)N[C@@H](Cc1ccccc1)C(N)=O`, the inhibition was 81% and 75%.

With `CC(C)[C@H]1CC1(NC(=O)[C@H](Cc1ccccc1)NC(=O)[C@@H](C)NC(=O)[C@H](C)NC(=O)[C@@H](N)Cc1ccc(O)cc1)C(=O)N[C@@H](CCCN=C(N)N)C(=O)N[C@@H](Cc1ccccc1)C(N)=O` (single isomer, unassigned; form 2), the inhibition turned out to be 27%.

Turning to `CC(C)C[C@@H](NC(=O)[C@H](Cc1ccccc1)NC(=O)[C@@H](C)NC(=O)[C@H](C)NC(=O)[C@@H](N)Cc1ccc(O)cc1)C(=O)N[C@@H](CCCN=C(N)N)C(=O)N[C@@H](Cc1ccccc1)C(N)=O`, the inhibition was 69% and 63%.

In turn, `CC(C)[C@H]1CC1(NC(=O)[C@H](Cc1ccccc1)NC(=O)[C@@H](C)NC(=O)[C@H](C)NC(=O)[C@@H](N)Cc1ccc(O)cc1)C(=O)N[C@@H](CCCN=C(N)N)C(=O)N[C@@H](Cc1ccccc1)C(N)=O` (single isomer, unassigned; form 1) gave an inhibition of 32%.

`CC(C)[C@H]1CC1(NC(=O)[C@H](Cc1ccccc1)NC(=O)CNC(=O)CNC(=O)[C@@H](N)Cc1ccc(O)cc1)C(=O)N[C@@H](CCCN=C(N)N)C(=O)N[C@@H](Cc1ccccc1)C(N)=O` (single isomer, unassigned) had an inhibition of 57%.

Consider `CC(C)C[C@@H](NC(=O)[C@H](Cc1ccccc1)NC(=O)CNC(=O)CNC(=O)[C@@H](N)Cc1ccc(O)cc1)C(=O)N[C@@H](CCCN=C(N)N)C(=O)N[C@@H](Cc1ccccc1)C(N)=O`, for which the inhibition is 48% and 31%.

Regarding `CC(C)[C@H]1C[C@@]1(NC(=O)[C@H](Cc1ccccc1)NC(=O)[C@@H](C)NC(=O)CNC(=O)[C@@H](N)Cc1ccc(O)cc1)C(=O)N[C@@H](CCCN=C(N)N)C(=O)N[C@@H](Cc1ccccc1)C(N)=O`, the inhibition was 22% and 34% and 43%.

For `CC(C)C[C@@H](NC(=O)[C@H](Cc1ccccc1)NC(=O)[C@@H](C)NC(=O)CNC(=O)[C@@H](N)Cc1ccc(O)cc1)C(=O)N[C@@H](CCCN=C(N)N)C(=O)N[C@@H](Cc1ccccc1)C(N)=O`, the inhibition was 28% and 48%.

For the compound `CC(C)[C@@H]1C[C@]1(NC(=O)[C@H](Cc1ccccc1)NC(=O)[C@@H](C)NC(=O)[C@H](C)NC(=O)[C@@H](N)Cc1ccc(O)cc1)C(=O)N[C@@H](CCCN=C(N)N)C(=O)N[C@@H](Cc1ccccc1)C(N)=O`, the inhibition is 30% [middle of 4 runs].

Turning to `CC(C)[C@H]1C[C@@]1(NC(=O)[C@H](Cc1ccccc1)NC(=O)[C@@H](C)NC(=O)[C@H](C)NC(=O)[C@@H](N)Cc1ccc(O)cc1)C(=O)N[C@@H](CCCN=C(N)N)C(=O)N[C@@H](Cc1ccccc1)C(N)=O`, the inhibition was 32% and 35%.

On to `CC(C)C[C@@H](NC(=O)[C@H](Cc1ccccc1)NC(=O)CNC(=O)[C@H](C)NC(=O)[C@@H](N)Cc1ccc(O)cc1)C(=O)N[C@@H](CCCN=C(N)N)C(=O)N[C@@H](Cc1ccccc1)C(N)=O`, for which the inhibition is 35% and 40%.

For the compound `CC(C)C[C@H](NC(=O)[C@H](Cc1ccccc1)NC(=O)CNC(=O)CNC(=O)[C@@H](N)Cc1ccc(O)cc1)C(=O)N[C@@H](CCCN=C(N)N)C(=O)N[C@@H](Cc1ccccc1)C(N)=O`, the inhibition is 98% and 84%.
